Experimental data reported in patent US20230271950A1, “ANTIBACTERIAL PICOLINAMIDE COMPOUNDS” (University of Notre Dame Du Lac, priority 2020, published 2023).
Values after ≈ are worked out from the molar mass of the structure shown. Read-outs that look alike come from different tables or passages of the source.

What was measured:
C. difficile = test: MIC by broth microdilution against C. difficile strains; assay type: cell-based, Clostridioides difficile; conditions: Clostridioides difficile; for MIC: Table 9, read-out: MIC
Eubacterium sp. = test: MIC against gut bacterium Eubacterium sp.; assay type: cell-based; conditions: Eubacterium, Eubacterium sp. strain HM-178, read-out: MIC

MIC (C. difficile; C. difficile NR-13436): 0.5 µg/mL (≈ 2.92 µM)
MIC (C. difficile; C. difficile NR-13437): 0.5 µg/mL (≈ 2.92 µM)
MIC (C. difficile; C. difficile NR-13438): 0.5 µg/mL (≈ 2.92 µM)
MIC (C. difficile; C. difficile NR-13553): 0.5 µg/mL (≈ 2.92 µM)
MIC (C. difficile; C. difficile NR-32882): 0.25 µg/mL (≈ 1.46 µM)
MIC (C. difficile; C. difficile NR-32883): 0.5 µg/mL (≈ 2.92 µM)
MIC (C. difficile; C. difficile NR-32884): 0.5 µg/mL (≈ 2.92 µM)
MIC (C. difficile; C. difficile NR-32885): 0.5 µg/mL (≈ 2.92 µM)
MIC (C. difficile; C. difficile NR-32886): 0.5 µg/mL (≈ 2.92 µM)
MIC (C. difficile; C. difficile NR-32887): 2 µg/mL (≈ 11.7 µM)
MIC (C. difficile; C. difficile NR-32888): 0.5 µg/mL (≈ 2.92 µM)
MIC (C. difficile; C. difficile NR-32889): 2 µg/mL (≈ 11.7 µM)
MIC (C. difficile; C. difficile NR-32890): 0.5 µg/mL (≈ 2.92 µM)
MIC (C. difficile; C. difficile NR-32891): 0.25 µg/mL (≈ 1.46 µM)
MIC (C. difficile; C. difficile NR-32892): 0.5 µg/mL (≈ 2.92 µM)
MIC (C. difficile; C. difficile NR-32895): 1 µg/mL (≈ 5.84 µM)
MIC (C. difficile; C. difficile NR-32896): 1 µg/mL (≈ 5.84 µM)
MIC (C. difficile; C. difficile NR-32897): 0.5 µg/mL (≈ 2.92 µM)
MIC (C. difficile; C. difficile NR-32900): 1 µg/mL (≈ 5.84 µM)
MIC (C. difficile; C. difficile NR-32903): 0.5 µg/mL (≈ 2.92 µM)
MIC (C. difficile; C. difficile NR-32904): 0.5 µg/mL (≈ 2.92 µM)
MIC (C. difficile; C. difficile NR-49277): 0.5 µg/mL (≈ 2.92 µM)
MIC (C. difficile; C. difficile NR-49278): 0.5 µg/mL (≈ 2.92 µM)
MIC (C. difficile; C. difficile NR-49279): 1 µg/mL (≈ 5.84 µM)
MIC (C. difficile; C. difficile NR-49280): 1 µg/mL (≈ 5.84 µM)
MIC (C. difficile; C. difficile NR-49281): 1 µg/mL (≈ 5.84 µM)
MIC (C. difficile; C. difficile NR-49282): 0.5 µg/mL (≈ 2.92 µM)
MIC (C. difficile; C. difficile NR-49283): 0.5 µg/mL (≈ 2.92 µM)
MIC (C. difficile; C. difficile NR-49284): 0.5 µg/mL (≈ 2.92 µM)
MIC (C. difficile; C. difficile NR-49285): 0.5 µg/mL (≈ 2.92 µM)
MIC (C. difficile; C. difficile NR-49286): 1 µg/mL (≈ 5.84 µM)
MIC (C. difficile; C. difficile NR-49287): 0.5 µg/mL (≈ 2.92 µM)
MIC (C. difficile; C. difficile NR-49288): 0.5 µg/mL (≈ 2.92 µM)
MIC (C. difficile; C. difficile NR-49289): 0.5 µg/mL (≈ 2.92 µM)
MIC (C. difficile; C. difficile NR-49290): 1 µg/mL (≈ 5.84 µM)
MIC (C. difficile; C. difficile NR-49291): 1 µg/mL (≈ 5.84 µM)
MIC (C. difficile; C. difficile NR-49293): 0.5 µg/mL (≈ 2.92 µM)
MIC (C. difficile; C. difficile NR-49295): 0.5 µg/mL (≈ 2.92 µM)
MIC (C. difficile; C. difficile NR-49296): 0.5 µg/mL (≈ 2.92 µM)
MIC (C. difficile; C. difficile NR-49297): 0.5 µg/mL (≈ 2.92 µM)
MIC (C. difficile; C. difficile NR-49298): 1 µg/mL (≈ 5.84 µM)
MIC (C. difficile; C. difficile NR-49299): 0.5 µg/mL (≈ 2.92 µM)
MIC (C. difficile; C. difficile NR-49300): 0.5 µg/mL (≈ 2.92 µM)
MIC (C. difficile; C. difficile NR-49301): 0.5 µg/mL (≈ 2.92 µM)
MIC (C. difficile; C. difficile NR-49303): 0.5 µg/mL (≈ 2.92 µM)
MIC (C. difficile; C. difficile NR-49304): 0.5 µg/mL (≈ 2.92 µM)
MIC (C. difficile; C. difficile NR-49306): 0.5 µg/mL (≈ 2.92 µM)
MIC (C. difficile; C. difficile NR-49307): 0.5 µg/mL (≈ 2.92 µM)
MIC (C. difficile; C. difficile NR-49308): 0.5 µg/mL (≈ 2.92 µM)
MIC (C. difficile; C. difficile NR-49309): 0.25 µg/mL (≈ 1.46 µM)
MIC (C. difficile; C. difficile NR-49311): 0.5 µg/mL (≈ 2.92 µM)
MIC (C. difficile; C. difficile NR-49312): 0.5 µg/mL (≈ 2.92 µM)
MIC (C. difficile; C. difficile NR-49313): 0.5 µg/mL (≈ 2.92 µM)
MIC (C. difficile; C. difficile NR-49314): 0.5 µg/mL (≈ 2.92 µM)
MIC (C. difficile; C. difficile NR-49315): 0.5 µg/mL (≈ 2.92 µM)
MIC (C. difficile; C. difficile NR-49316): 0.5 µg/mL (≈ 2.92 µM)
MIC (C. difficile; C. difficile NR-49317): 0.5 µg/mL (≈ 2.92 µM)
MIC (C. difficile; C. difficile NR-49319): 0.5 µg/mL (≈ 2.92 µM)
MIC (C. difficile; C. difficile NR-49320): 0.5 µg/mL (≈ 2.92 µM)
MIC (C. difficile; C. difficile NR-49321): 0.5 µg/mL (≈ 2.92 µM)
MIC (C. difficile; C. difficile NR-49323): 0.25 µg/mL (≈ 1.46 µM)
MIC (C. difficile; C. difficile NR-49324): 0.25 µg/mL (≈ 1.46 µM)
MIC (C. difficile; C. difficile NR-49325): 0.5 µg/mL (≈ 2.92 µM)
MIC (C. difficile; C. difficile NR-49326): 0.5 µg/mL (≈ 2.92 µM)
MIC (C. difficile; C. difficile NR-49327): 0.5 µg/mL (≈ 2.92 µM)
MIC (C. difficile; C. difficile NR-49328): 0.25 µg/mL (≈ 1.46 µM)
MIC (C. difficile; C. difficile NR-49329): 0.25 µg/mL (≈ 1.46 µM)
MIC50 (C. difficile; 101 C. difficile strains): 0.5 µg/mL (≈ 2.92 µM)
MIC90 (C. difficile; 101 C. difficile strains, read-out: MIC90 (101 strains)): 1 µg/mL (≈ 5.84 µM)
MIC (Eubacterium sp.; Table 1): 1 µg/mL (≈ 5.84 µM)
MIC (Eubacterium sp.; Table 7): 1 µg/mL (≈ 5.84 µM)
Structure (SMILES): Cc1ncc([N+](=O)[O-])n1CCO [MTZ, metronidazole, reference compound]
